Reference: publication PMC9618103, “Exploratory toxicology studies of 2,3-substituted imidazo[1,2-a]pyridines with antiparasitic and anti-inflammatory properties” (Toxicology Research, 2022)

Tests used:
Wistar rats [1] = test: Subacute toxicity: serum and urine glucose, urinary protein excretion; format: in vivo; details: rats, p.o., 14 days at 10% of LD50 (CCl4, APAP: once daily, 3 days); mean ± SEM, n = 6
Procedure: (§1) For toxicity tests, acclimatized rats were randomly allocated to 12 groups (n = 12 for the control and n = 6 for the rest groups). […] Meanwhile, the aforementioned vehicles (dose volume 2 mL/kg b.w.) were administered to 3 groups. […] The animals were then housed in individual metabolic cages to collect urine for a period of 6 h and then the volume was recorded. Afterward, blood samples were obtained and the serum was separated by centrifugation at 1,620 × g for 10 min at room temperature.
Serum and urine glucose concentration were calculated using GOD-PAP kits (RANDOX, Laboratories Ltd, UK). Urinary protein was quantified using the Bradford method.[29]
(§2) Serum and urinary creatinine were determined by the Jaffe method. With this value, evaluation was made of the fractional excretion of sodium (FES), fractional excretion of potassium (FEP), and fractional excretion of glucose.[30]^,[31] The GFR was calculated from clearance of endogenous creatinine using the conventional equation:where GFR (CCr) is the creatinine clearance rate (mL/min); UCr and SCr are the creatinine concentrations (mg/dL) in urine and serum, respectively; and φ is the urinary flow rate (UFR) (mL/min). To avoid the error from the tubular secretion of creatinine found in males, only female animals were used.
(§3) The levels of sodium and potassium were measured in urine and serum using a flame photometer (Corning 400, Medfield, United States). Calculation was made of the clearance, fractional excretion, and filtered load of sodium (FLS), filtered load of potassium (FLP), and filtered load of glucose (FLG) using the conventional equations:where CX is the clearance rate of X (mL/min), CCr is the creatinine clearance rate (mL/min), UX and SX are the […] concentrations of X, respectively, φ is the UFR (mL/min), FEX is the fractional excretion (%) of X, and FLX is the filtered load of X in μEq/min (Na^+ or K^+) or mg/min (glucose).

Wistar rats [2] = test: Subacute toxicity: water and electrolyte balance (osmolality, sodium, potassium, urinary flow); format: in vivo
Procedure: as §1
Osmolality of serum and urine were assessed (in triplicate) by using a vapor pressure osmometer (Wescor 5500, Logan, United States). U/S ratio as well as osmolar (COsm) and free water clearances were calculated via conventional equations:where UOsm and SOsm are the osmolality values (mOsm/Kg) in urine and serum, respectively, and φ is the UFR (mL/min).
as §3

Wistar rats [3] = test: Subacute toxicity: serum alanine aminotransferase and alkaline phosphatase activity; format: in vivo; details: for Alanine Aminotransferase / Alkaline Phosphatase: serum, rats, p.o., 14 days at 10% of LD50 (CCl4, APAP: once daily, 3 days), mean ± SEM, n = 6
Procedure: (§4) For toxicity tests, acclimatized rats were randomly allocated to 12 groups (n = 12 for the control and n = 6 for the rest groups). […] Meanwhile, the aforementioned vehicles (dose volume 2 mL/kg b.w.) were administered to 3 groups. […] Upon completion of the 14-day treatments and before sample collection, the bladders of animals were emptied by gentle pressure on the lower part of the abdomen to induce urination. The animals were then housed in individual metabolic cages to collect urine for a period of 6 h and then the volume was recorded. Afterward, blood samples were obtained and the serum was separated by centrifugation at 1,620 × g for 10 min at room temperature.
The activities of serum alanine aminotransferase (ALT) and alkaline phosphatase (ALP) were measured with standard kits (RANDOX, Laboratories Ltd, UK).

Wistar rats [4] = test: Hepatic and renal lipid peroxidation (lipid-soluble fluorescence); format: in vivo; details: for hepatic LPO, change in words / renal LPO, change in words: compared to the control group (CCl4 also versus PO); for Renal Lipoperoxidation: kidney; for Renal Lipoperoxidation / Hepatic Lipoperoxidation: rats, p.o., 14 days at 10% of LD50 (CCl4, APAP: once daily, 3 days), mean ± SEM, n = 6; for Hepatic Lipoperoxidation: liver
Procedure: as §4
Lipid peroxidation (LPO) was evaluated by the formation of lipid-soluble fluorescence, as previously described. Briefly, kidney and liver tissues were homogenized in 3 and 5 mL of phosphate buffer (0.2 M, pH = 7.4), respectively. A volume of 1 mL (kidney) or 0.8 mL (liver) of the homogenates was added to 7 mL of chloroform-methanol (2:1, v/v), and after 15 s of vortex mixing, the resulting mixture was cooled using an ice bath for 30 min to allow for phase separation. The fluorescence of the organic phase was measured using a Shimadzu fluorometer (Japan; λex = 370 nm; λem = 430 nm), whose sensitivity was adjusted to 140 fluorescence units by using 1 μg/mL of quinine sulfate in 50 mM H2SO4. The results were expressed as relative fluorescence units per milligram of protein.[33]
(§5) The protein concentration in homogenates was measured by the Bradford method.[29]

Wistar rats [5] = test: Hepatic and renal reactive oxygen species (DCF formation); format: in vivo; details: for hepatic ROS, change in words / renal ROS, change in words: compared to the control group (CCl4 also versus PO); for Renal ROS: kidney; for Renal ROS / Hepatic ROS: rats, p.o., 14 days at 10% of LD50 (CCl4, APAP: once daily, 3 days), mean ± SEM, n = 6; for Hepatic ROS: liver
Procedure: as §4
Reactive oxygen species (ROS) were measured by formation of 2′,7′-dichlorofluorescein (DCF). An aliquot of 10 μL (kidney) or 5 μL (liver) of the homogenates was added to 1,940 or 1,945 μL of TRIS:HEPES (18:1) and was incubated in the presence of 50 μL of 2′,7′-dichlorofluorescein diacetate for 1 h at 37 °C. In order to quench the reaction, the mixture was chilled using an ice bath. The fluorescence was measured using a Shimadzu fluorometer (Japan; λex = 488 nm; λem = 525 nm). The results were expressed as nM DCF formed per mg protein/h.[33]
as §5

Wistar rats [6] = test: Subacute toxicity: glomerular filtration rate (creatinine clearance) and serum creatinine; format: in vivo; details: rats, p.o., 14 days at 10% of LD50 (CCl4, APAP: once daily, 3 days); mean ± SEM, n = 6
Procedure: as §1, §2

[7] = test system: renal secretory pathway of organic anions; test: Active tubular secretion of organic acids (PAH uptake in kidney cortex slices); format: in vivo, rats; details: kidney cortex slices, PAH 1 mM, 1 h, 25 °C; rats, p.o., 14 days at 10% of LD50 (CCl4, APAP: once daily, 3 days); mean ± SEM, n = 6
Procedure: as §4
p-Aminohippuric acid (PAH) was used as an indicator of the renal secretory pathway of organic anions. Kidneys were extracted and immediately submerged in Ringer solution (pH = 7.4 and mOsm = 290 ± 10 mOsm/kg) under constant bubbling with O2/CO2 (95/5%). The kidneys were decapsulated and slices of the kidney cortex were obtained, which were then incubated in Ringer solution containing PAH (1 mM) for 1 h at 25 °C under constant bubbling with O2/CO2 (95/5%). The levels of PAH were quantified with the Bratton-Marshall method and results were expressed as the PAH tissue/medium ratio (PAH t/m ratio).[31]^,[32]

[8] = rats, p.o., 14 days at 10% of LD50 (CCl4, APAP: once daily, 3 days), mean ± SEM, n = 6
[9] = compared to the control (CCl4 also versus PO)

| Compound | Filtered Load of Glucose (Wistar rats [1]) [mg/min] | Fractional Excretion of Glucose (Wistar rats [1]) [%] | Urinary Glucose Excretion (Wistar rats [1]) [ng/min] | Urinary Protein Excretion (Wistar rats [1]) [µg/min] | Filtered Load of Potassium (Wistar rats [2]; [8]) [µEq/min] | Filtered Load of Sodium (Wistar rats [2]; [8]) [µEq/min] | Fractional Excretion of Potassium (Wistar rats [2]; [8]) [%] | Fractional Excretion of Sodium (Wistar rats [2]; [8]) [%] | Serum Osmolality (Wistar rats [2]; [8]) [mOsm/kg] | Serum Potassium (Wistar rats [2]; [8]) [mEq/L] | Serum Sodium (Wistar rats [2]; [8]) [mEq/L] | Urinary Flow Rate (Wistar rats [2]; [8]) [µL/min] | Urinary Potassium Excretion (Wistar rats [2]; [8]) [µEq/min] | Urinary Sodium Excretion (Wistar rats [2]; [8]) [µEq/min] | Alanine Aminotransferase (Wistar rats [3]) [U/L] | Alkaline Phosphatase (Wistar rats [3]) [U/L] | hepatic LPO, change in words (Wistar rats [4]) | renal LPO, change in words (Wistar rats [4]) | Renal Lipoperoxidation (Wistar rats [4]) [URF/mg protein] | Hepatic Lipoperoxidation (Wistar rats [4]) [URF/mg protein] | also measured |
| --- | --- | --- | --- | --- | --- | --- | --- | --- | --- | --- | --- | --- | --- | --- | --- | --- | --- | --- | --- | --- | --- |
| CC(=O)Nc1ccc(O)cc1 [APAP, acetaminophen, reference compound] | 1.35 ± 0.27 | 0.01 ± 1.9E-3 | 87.10 ± 19.92 | 0.94 ± 0.24 | 3.99 ± 0.80 | 147.38 ± 31.27 | 12.50 ± 3.12 | 0.27 ± 0.09 | 295.68 ± 1.57 | 3.78 ± 0.22 | 138.58 ± 2.37 | 6.19 ± 1.15 | 0.47 ± 0.14 | 0.46 ± 0.21 | 41.47 ± 4.80 | 151.97 ± 11.19 | increased | increased | 0.46 ± 0.06 | 1.06 ± 0.06 | serum potassium, change in words (Wistar rats [2]; compared to the control group, significant by PLS VIP and ANOVA): decreased; hepatic ROS, change in words (Wistar rats [5]): increased; renal ROS, change in words (Wistar rats [5]): increased; Renal ROS (Wistar rats [5]): 421.62 ± 56.57 nM de DCF/mg protein/h; Hepatic ROS (Wistar rats [5]): 1740.28 ± 231.55 nM de DCF/mg protein/h |
| ClC(Cl)(Cl)Cl [CCl4, carbon tetrachloride, reference compound] | 4.64 ± 1.71 | 0.02 ± 0.01 | 265.11 ± 89.54 | 12.15 ± 4.49 | 17.22 ± 5.29 | 592.11 ± 199.71 | 6.86 ± 2.06 | 0.21 ± 0.06 | 305.77 ± 3.41 | 4.27 ± 0.25 | 139.08 ± 1.63 | 6.59 ± 1.39 | 0.73 ± 0.10 | 0.72 ± 0.13 | 127.80 ± 4.08 | 328.19 ± 61.36 | increased | increased | 0.61 ± 0.07 | 1.06 ± 0.11 | Serum Glucose (Wistar rats [1]): 103.17 ± 4.35 mg/dL; Glomerular Filtration Rate (Wistar rats [6]): 4.30 ± 1.47 mL/min; Serum Creatinine (Wistar rats [6]): 0.45 ± 0.13 mg/dL; U/S Osm ratio (Wistar rats [2]; [8]): 3.27 ± 0.37; serum ALP, change in words (Wistar rats [3]; [9]): increased; serum ALT, change in words (Wistar rats [3]; [9]): increased; PAH t/m ratio [7]: 2.08 ± 0.11; hepatic ROS, change in words (Wistar rats [5]): increased; renal ROS, change in words (Wistar rats [5]): increased; Renal ROS (Wistar rats [5]): 333.27 ± 74.29 nM de DCF/mg protein/h; Hepatic ROS (Wistar rats [5]): 1434.82 ± 121.35 nM de DCF/mg protein/h |
